# From the kinase profiling compilation of Christmann-Franck et al. (2016)
# Several values for one entry are separate records, joined by “and”; a condition that tells them apart may be missing. Identical values can stand only once.
# Assays:
# Assay in all cases: radiometric filter-binding kinase assay, Kinase HotSpot
# Settings in all cases: compound 0.5 µM; ATP 10 µM
# DAPK2 (human) = DAPK2 (human) (UniProt Q9UIK4)
# SGK3 (human) = SGK3 (human) (UniProt Q96BR1)
# PRKACA (human) = PRKACA (human) (UniProt P17612)
# FRK (human) = FRK (human) (UniProt P42685)
# TEC (human) = TEC (human) (UniProt P42680)
# RET (human) = RET (human) (UniProt P07949)
# MAP4K2 (human) = MAP4K2 (human) (UniProt Q12851)
# CDK4 CCND1 (human) = CDK4 CCND1 (human) (UniProt P24385+P11802)
# CDK2 CCNE1 (human) = CDK2 CCNE1 (human) (UniProt P24941+P24864)
# JAK3 JH1 JH2 (human) = JAK3 JH1 JH2 (human) (UniProt P52333)
# CAMK2D (human) = CAMK2D (human) (UniProt Q13557)
# TAOK1 (human) = TAOK1 (human) (UniProt Q7L7X3)
# EPHB3 (human) = EPHB3 (human) (UniProt P54753)
# CDK6 CCND3 (human) = CDK6 CCND3 (human) (UniProt P30281+Q00534)
# ITK (human) = ITK (human) (UniProt Q08881)
# IKBKE (human) = IKBKE (human) (UniProt Q14164)
# PBK (human) = PBK (human) (UniProt Q96KB5)
# TGFBR2 (human) = TGFBR2 (human) (UniProt P37173)
# AKT3 (human) = AKT3 (human) (UniProt Q9Y243)
# DAPK3 (human) = DAPK3 (human) (UniProt O43293)
# PRKD3 (human) = PRKD3 (human) (UniProt O94806)
# IRAK1 (human) = IRAK1 (human) (UniProt P51617)
# MKNK2 (human) = MKNK2 (human) (UniProt Q9HBH9)
# TSSK2 (human) = TSSK2 (human) (UniProt Q96PF2)
# SYK (human) = SYK (human) (UniProt P43405)
# PNCK (human) = PNCK (human) (UniProt Q6P2M8)
# CAMK2A (human) = CAMK2A (human) (UniProt Q9UQM7)
# TBK1 (human) = TBK1 (human) (UniProt Q9UHD2)
# HIPK1 (human) = HIPK1 (human) (UniProt Q86Z02)
# VRK1 (human) = VRK1 (human) (UniProt Q99986)
# CDK4 CCND3 (human) = CDK4 CCND3 (human) (UniProt P30281+P11802)
# PAK1 (human) = PAK1 (human) (UniProt Q13153)
# CHEK1 (human) = CHEK1 (human) (UniProt O14757)
# PRKCA (human) = PRKCA (human) (UniProt P17252)
# CLK1 (human) = CLK1 (human) (UniProt P49759)
# SRPK2 (human) = SRPK2 (human) (UniProt P78362)
# STK24 (human) = STK24 (human) (UniProt Q9Y6E0)
# PRKG1 (human) = PRKG1 (human) (UniProt Q13976)
# SRPK3 (human) = SRPK3 (human) (UniProt Q9UPE1)
# CAMK2G (human) = CAMK2G (human) (UniProt Q13555)
# CAMK2B (human) = CAMK2B (human) (UniProt Q13554)
# Chain of VRK1 (human) (Q99986 whole entry, looked up): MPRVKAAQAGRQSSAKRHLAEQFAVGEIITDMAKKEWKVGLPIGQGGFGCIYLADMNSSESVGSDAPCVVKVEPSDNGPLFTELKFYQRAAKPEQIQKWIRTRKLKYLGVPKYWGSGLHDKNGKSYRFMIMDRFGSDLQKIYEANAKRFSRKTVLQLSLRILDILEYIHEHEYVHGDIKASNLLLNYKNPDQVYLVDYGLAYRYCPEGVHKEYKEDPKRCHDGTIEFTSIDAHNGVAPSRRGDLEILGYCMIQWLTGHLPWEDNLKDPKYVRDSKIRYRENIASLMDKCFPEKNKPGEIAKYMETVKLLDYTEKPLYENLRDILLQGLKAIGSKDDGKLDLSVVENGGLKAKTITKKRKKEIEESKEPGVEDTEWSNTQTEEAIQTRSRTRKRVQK
# Chain of SRPK2 (human) (P78362 whole entry, looked up): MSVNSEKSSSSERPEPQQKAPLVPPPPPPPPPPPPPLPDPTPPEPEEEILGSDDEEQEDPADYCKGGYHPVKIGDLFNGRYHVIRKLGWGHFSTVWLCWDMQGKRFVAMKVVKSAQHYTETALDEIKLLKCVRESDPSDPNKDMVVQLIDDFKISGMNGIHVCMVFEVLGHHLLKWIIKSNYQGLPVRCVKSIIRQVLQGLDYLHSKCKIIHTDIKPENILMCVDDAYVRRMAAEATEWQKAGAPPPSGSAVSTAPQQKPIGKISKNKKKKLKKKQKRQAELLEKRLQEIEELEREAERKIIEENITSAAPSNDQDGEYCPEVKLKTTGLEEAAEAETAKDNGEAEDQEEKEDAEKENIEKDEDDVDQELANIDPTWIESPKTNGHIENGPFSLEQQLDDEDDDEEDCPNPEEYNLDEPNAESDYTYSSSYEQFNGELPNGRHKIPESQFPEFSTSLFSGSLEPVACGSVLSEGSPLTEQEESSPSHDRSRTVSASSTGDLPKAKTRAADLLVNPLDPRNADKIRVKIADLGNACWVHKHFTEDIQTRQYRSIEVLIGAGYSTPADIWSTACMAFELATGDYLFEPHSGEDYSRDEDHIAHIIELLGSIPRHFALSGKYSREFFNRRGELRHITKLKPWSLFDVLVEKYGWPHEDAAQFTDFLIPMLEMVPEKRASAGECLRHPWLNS
# Chain of DAPK3 (human) (O43293 whole entry, looked up): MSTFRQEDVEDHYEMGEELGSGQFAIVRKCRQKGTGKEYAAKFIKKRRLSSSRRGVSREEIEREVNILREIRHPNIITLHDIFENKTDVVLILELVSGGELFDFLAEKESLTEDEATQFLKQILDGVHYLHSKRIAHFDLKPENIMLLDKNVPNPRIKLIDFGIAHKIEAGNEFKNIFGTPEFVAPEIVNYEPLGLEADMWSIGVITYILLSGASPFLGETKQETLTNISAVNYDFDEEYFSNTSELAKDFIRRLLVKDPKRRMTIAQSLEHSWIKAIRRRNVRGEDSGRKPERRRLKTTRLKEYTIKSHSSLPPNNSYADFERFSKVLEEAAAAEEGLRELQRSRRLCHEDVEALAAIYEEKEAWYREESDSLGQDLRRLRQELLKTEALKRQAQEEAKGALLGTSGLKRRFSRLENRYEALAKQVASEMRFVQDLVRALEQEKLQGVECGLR
# Chain of CDK6 CCND3 (human) (P30281 whole entry, looked up): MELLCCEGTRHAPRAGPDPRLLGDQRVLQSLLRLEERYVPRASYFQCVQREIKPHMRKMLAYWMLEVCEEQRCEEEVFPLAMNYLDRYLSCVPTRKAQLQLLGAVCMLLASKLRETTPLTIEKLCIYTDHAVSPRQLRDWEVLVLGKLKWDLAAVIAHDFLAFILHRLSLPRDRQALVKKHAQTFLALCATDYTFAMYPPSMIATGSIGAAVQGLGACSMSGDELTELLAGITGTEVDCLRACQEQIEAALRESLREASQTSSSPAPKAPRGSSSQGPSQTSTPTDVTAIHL
# Chain of CDK6 CCND3 (human) (Q00534 whole entry, looked up): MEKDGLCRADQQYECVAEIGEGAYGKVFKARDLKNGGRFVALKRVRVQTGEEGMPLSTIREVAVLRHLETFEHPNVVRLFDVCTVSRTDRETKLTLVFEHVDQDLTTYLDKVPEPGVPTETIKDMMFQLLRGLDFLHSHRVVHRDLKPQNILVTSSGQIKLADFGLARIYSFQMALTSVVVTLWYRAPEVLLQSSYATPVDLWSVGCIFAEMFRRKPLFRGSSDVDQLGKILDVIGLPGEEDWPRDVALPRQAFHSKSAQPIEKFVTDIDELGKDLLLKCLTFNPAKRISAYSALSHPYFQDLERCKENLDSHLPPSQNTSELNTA
# Chain of TEC (human) (P42680 whole entry, looked up): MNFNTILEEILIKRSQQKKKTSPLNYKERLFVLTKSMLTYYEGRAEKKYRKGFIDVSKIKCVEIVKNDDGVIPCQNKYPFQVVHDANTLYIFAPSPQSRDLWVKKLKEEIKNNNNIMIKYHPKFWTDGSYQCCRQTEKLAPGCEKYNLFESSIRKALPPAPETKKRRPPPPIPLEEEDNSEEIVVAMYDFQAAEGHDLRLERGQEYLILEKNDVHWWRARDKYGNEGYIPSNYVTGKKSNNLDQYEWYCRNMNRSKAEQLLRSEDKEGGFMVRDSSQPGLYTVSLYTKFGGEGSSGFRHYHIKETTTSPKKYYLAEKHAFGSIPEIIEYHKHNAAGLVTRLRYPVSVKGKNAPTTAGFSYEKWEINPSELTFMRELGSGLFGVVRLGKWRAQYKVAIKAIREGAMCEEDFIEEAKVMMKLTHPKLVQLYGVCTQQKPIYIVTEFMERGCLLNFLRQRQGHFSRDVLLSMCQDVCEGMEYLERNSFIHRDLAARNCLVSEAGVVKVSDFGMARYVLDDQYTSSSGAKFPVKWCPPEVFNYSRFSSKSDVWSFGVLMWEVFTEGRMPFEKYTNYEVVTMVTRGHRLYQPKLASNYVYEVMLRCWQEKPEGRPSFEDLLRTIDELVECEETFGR
# Chain of CAMK2A (human) (Q9UQM7 whole entry, looked up): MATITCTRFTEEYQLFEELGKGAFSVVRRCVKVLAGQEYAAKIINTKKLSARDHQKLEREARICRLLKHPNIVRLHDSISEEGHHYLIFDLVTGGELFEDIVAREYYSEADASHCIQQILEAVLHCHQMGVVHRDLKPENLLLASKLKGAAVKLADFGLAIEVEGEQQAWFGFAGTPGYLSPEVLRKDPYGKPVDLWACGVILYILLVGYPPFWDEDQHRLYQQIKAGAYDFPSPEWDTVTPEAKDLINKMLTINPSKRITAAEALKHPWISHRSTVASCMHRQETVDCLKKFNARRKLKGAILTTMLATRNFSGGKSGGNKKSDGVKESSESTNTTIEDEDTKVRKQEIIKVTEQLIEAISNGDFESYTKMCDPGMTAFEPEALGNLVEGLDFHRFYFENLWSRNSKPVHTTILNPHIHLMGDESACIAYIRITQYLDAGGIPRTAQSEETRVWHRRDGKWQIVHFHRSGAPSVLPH
# Chain of IKBKE (human) (Q14164 whole entry, looked up): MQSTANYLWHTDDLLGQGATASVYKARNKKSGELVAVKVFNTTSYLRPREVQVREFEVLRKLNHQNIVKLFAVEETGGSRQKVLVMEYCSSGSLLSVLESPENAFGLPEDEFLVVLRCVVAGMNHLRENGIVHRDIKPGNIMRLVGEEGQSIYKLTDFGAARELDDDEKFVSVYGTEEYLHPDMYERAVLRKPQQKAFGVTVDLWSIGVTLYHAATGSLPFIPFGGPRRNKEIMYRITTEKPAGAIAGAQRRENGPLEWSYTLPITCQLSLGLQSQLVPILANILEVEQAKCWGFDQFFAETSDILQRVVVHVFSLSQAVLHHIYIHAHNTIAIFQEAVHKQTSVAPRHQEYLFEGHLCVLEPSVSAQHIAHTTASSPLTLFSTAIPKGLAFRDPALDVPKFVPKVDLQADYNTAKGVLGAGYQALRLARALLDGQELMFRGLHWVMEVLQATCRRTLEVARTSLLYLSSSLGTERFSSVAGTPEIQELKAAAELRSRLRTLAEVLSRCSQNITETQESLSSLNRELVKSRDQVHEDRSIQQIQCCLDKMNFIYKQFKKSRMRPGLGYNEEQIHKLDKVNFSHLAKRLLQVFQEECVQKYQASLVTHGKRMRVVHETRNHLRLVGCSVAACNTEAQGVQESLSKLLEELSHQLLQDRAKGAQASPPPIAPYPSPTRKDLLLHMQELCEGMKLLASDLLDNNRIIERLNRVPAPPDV
# Chain of PNCK (human) (Q6P2M8 whole entry, looked up): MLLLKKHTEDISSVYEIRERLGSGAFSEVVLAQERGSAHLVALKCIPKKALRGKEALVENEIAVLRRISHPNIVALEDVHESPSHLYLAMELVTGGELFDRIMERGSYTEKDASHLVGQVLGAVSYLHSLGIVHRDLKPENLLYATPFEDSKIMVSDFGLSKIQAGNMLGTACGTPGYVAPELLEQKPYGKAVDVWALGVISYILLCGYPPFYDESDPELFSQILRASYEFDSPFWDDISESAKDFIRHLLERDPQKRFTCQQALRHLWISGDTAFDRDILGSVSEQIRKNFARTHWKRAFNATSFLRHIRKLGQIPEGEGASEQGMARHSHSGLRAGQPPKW
compound,measurement,setting,value
c1ccc(-c2n[nH]c3c2oc2ccccc23)cc1,residual activity,DAPK2 (human),71.2%
same,residual activity,SGK3 (human),111%
same,residual activity,PRKACA (human),97.5%
same,residual activity,FRK (human),89.9%
same,residual activity,TEC (human),95.6%
same,residual activity,RET (human),78.2%
same,residual activity,MAP4K2 (human),61.8%
same,residual activity,CDK4 CCND1 (human),87.9%
same,residual activity,CDK2 CCNE1 (human),95.6%
same,residual activity,JAK3 JH1 JH2 (human),132%
same,residual activity,CAMK2D (human),94.5%
same,residual activity,TAOK1 (human),121%
same,residual activity,EPHB3 (human),84.7%
same,residual activity,CDK6 CCND3 (human),91.6%
same,residual activity,ITK (human),80.4%
same,residual activity,IKBKE (human),101%
same,residual activity,PBK (human),94.8%
same,residual activity,TGFBR2 (human),94.1%
same,residual activity,AKT3 (human),84.4%
same,residual activity,DAPK3 (human),91.5%
same,residual activity,PRKD3 (human),99.6%
same,residual activity,IRAK1 (human),98%
same,residual activity,MKNK2 (human),70%
same,residual activity,TSSK2 (human),97.6%
same,residual activity,SYK (human),97.7%
same,residual activity,PNCK (human),98.6%
same,residual activity,CAMK2A (human),110%
same,residual activity,TBK1 (human),105%
same,residual activity,HIPK1 (human),103%
same,residual activity,VRK1 (human),83.1%
same,residual activity,CDK4 CCND3 (human),101%
same,residual activity,PAK1 (human),94.9%
same,residual activity,CHEK1 (human),117%
same,residual activity,PRKCA (human),92.9%
same,residual activity,CLK1 (human),84%
same,residual activity,SRPK2 (human),95%
same,residual activity,STK24 (human),75.3%
same,residual activity,PRKG1 (human),102% and 103%
same,residual activity,SRPK3 (human),94.5%
same,residual activity,CAMK2G (human),93.3%
same,residual activity,CAMK2B (human),101%
O=c1cc(N2CCOCC2)oc2c1ccc1ccccc12,residual activity,DAPK2 (human),115%
same,residual activity,SGK3 (human),106%
same,residual activity,PRKACA (human),102%
same,residual activity,FRK (human),98.8%
same,residual activity,TEC (human),150%
same,residual activity,RET (human),99.8%
same,residual activity,MAP4K2 (human),118%
same,residual activity,CDK4 CCND1 (human),95.6%
same,residual activity,CDK2 CCNE1 (human),119%
same,residual activity,JAK3 JH1 JH2 (human),103%
same,residual activity,CAMK2D (human),99.9%
same,residual activity,TAOK1 (human),97.5%
same,residual activity,EPHB3 (human),90%
same,residual activity,CDK6 CCND3 (human),95.1%
same,residual activity,ITK (human),100%
same,residual activity,IKBKE (human),101%
same,residual activity,PBK (human),103%
same,residual activity,TGFBR2 (human),122%
same,residual activity,AKT3 (human),98.3%
same,residual activity,DAPK3 (human),94.6%
same,residual activity,PRKD3 (human),98.8%
same,residual activity,IRAK1 (human),112%
same,residual activity,MKNK2 (human),88.5%
same,residual activity,TSSK2 (human),100%
same,residual activity,SYK (human),93%
same,residual activity,PNCK (human),97.4%
same,residual activity,CAMK2A (human),99.4%
same,residual activity,TBK1 (human),102%
same,residual activity,HIPK1 (human),102%
same,residual activity,VRK1 (human),93.3%
same,residual activity,CDK4 CCND3 (human),96.8%
same,residual activity,PAK1 (human),93.5%
same,residual activity,CHEK1 (human),104%
same,residual activity,PRKCA (human),89.2%
same,residual activity,CLK1 (human),98.3%
same,residual activity,SRPK2 (human),100%
same,residual activity,STK24 (human),103%
same,residual activity,PRKG1 (human),84.5% and 94.6%
same,residual activity,SRPK3 (human),105%
same,residual activity,CAMK2G (human),95.5%
same,residual activity,CAMK2B (human),98.1%
COc1ccc(COc2ccc(Cc3cnc(N)nc3N)cc2OC)cc1,residual activity,DAPK2 (human),95.3%
same,residual activity,SGK3 (human),105%
same,residual activity,PRKACA (human),104%
same,residual activity,TEC (human),114%
same,residual activity,RET (human),108%
same,residual activity,MAP4K2 (human),120%
same,residual activity,CDK4 CCND1 (human),97.4%
same,residual activity,JAK3 JH1 JH2 (human),95.9%
same,residual activity,CAMK2D (human),109%
same,residual activity,TAOK1 (human),110%
same,residual activity,EPHB3 (human),91.8%
same,residual activity,CDK6 CCND3 (human),94.5%
same,residual activity,ITK (human),98.1%
same,residual activity,IKBKE (human),96.7%
same,residual activity,PBK (human),99.4%
same,residual activity,TGFBR2 (human),127%
same,residual activity,AKT3 (human),96.5%
same,residual activity,DAPK3 (human),104%
same,residual activity,PRKD3 (human),97.1%
same,residual activity,IRAK1 (human),123%
same,residual activity,MKNK2 (human),90.6%
same,residual activity,TSSK2 (human),109%
same,residual activity,SYK (human),89%
same,residual activity,PNCK (human),98.4%
same,residual activity,CAMK2A (human),105%
same,residual activity,TBK1 (human),103%
same,residual activity,HIPK1 (human),110%
same,residual activity,VRK1 (human),91.4%
same,residual activity,CDK4 CCND3 (human),107%
same,residual activity,PAK1 (human),93.4%
same,residual activity,CHEK1 (human),107%
same,residual activity,PRKCA (human),95.9%
same,residual activity,CLK1 (human),103%
same,residual activity,SRPK2 (human),87.4%
same,residual activity,STK24 (human),93.5%
same,residual activity,PRKG1 (human),91.7% and 98.3%
same,residual activity,SRPK3 (human),102%
same,residual activity,CAMK2G (human),94.4%
same,residual activity,CAMK2B (human),100%
